From BigSolDB 2.1

Oc1ccccc1/C=N/c1ccccn1
solubility (mole fraction)
Details | 268.15 K | 273.15 K | 278.15 K | 283.15 K | 288.15 K | 293.15 K | 298.15 K
in diethyl ether | 0.0581 | 0.0673 | 0.0873 | 0.107 | 0.14 | 0.17 | 0.231
in ethanol | 0.0099 | 0.0121 | 0.0152 | 0.0199 | 0.0266 | 0.035 | 0.0489
in methanol | 0.00796 | 0.0107 | 0.0146 | 0.0187 | 0.0255 | 0.0346 | 0.0503
in toluene | 0.135 | 0.174 | 0.215 | 0.26 | 0.316 | 0.361 | 0.423

Oc1ccc(Cl)cc1C=Nc1ccccn1
solubility (mole fraction)
Details | 268.15 K | 273.15 K | 278.15 K | 283.15 K | 288.15 K | 293.15 K | 298.15 K | 303.15 K
in THF | 0.0285 | 0.0323 | 0.0362 | 0.0406 | 0.0466 | 0.0545 | 0.0649 | 0.0735
in dichloromethane | 0.00836 | 0.0124 | 0.0166 | 0.0193 | 0.0247 | 0.0306 | 0.0355 | 0.0429
in diethyl ether | 0.00329 | 0.00427 | 0.00513 | 0.00605 | 0.00728 | 0.00844 | 0.0105 | 0.0121
in toluene | 0.0103 | 0.0111 | 0.0136 | 0.017 | 0.0192 | 0.0228 | 0.0277 | 0.0339
